The values that follow come from US20190134005A1 (BioMarin Pharmaceutical Inc., priority 2016, published 2019).

In one experiment the target is T1, human CGT (Homo sapiens, UniProt Q16880).
T1 sequence (Q16880 21-541): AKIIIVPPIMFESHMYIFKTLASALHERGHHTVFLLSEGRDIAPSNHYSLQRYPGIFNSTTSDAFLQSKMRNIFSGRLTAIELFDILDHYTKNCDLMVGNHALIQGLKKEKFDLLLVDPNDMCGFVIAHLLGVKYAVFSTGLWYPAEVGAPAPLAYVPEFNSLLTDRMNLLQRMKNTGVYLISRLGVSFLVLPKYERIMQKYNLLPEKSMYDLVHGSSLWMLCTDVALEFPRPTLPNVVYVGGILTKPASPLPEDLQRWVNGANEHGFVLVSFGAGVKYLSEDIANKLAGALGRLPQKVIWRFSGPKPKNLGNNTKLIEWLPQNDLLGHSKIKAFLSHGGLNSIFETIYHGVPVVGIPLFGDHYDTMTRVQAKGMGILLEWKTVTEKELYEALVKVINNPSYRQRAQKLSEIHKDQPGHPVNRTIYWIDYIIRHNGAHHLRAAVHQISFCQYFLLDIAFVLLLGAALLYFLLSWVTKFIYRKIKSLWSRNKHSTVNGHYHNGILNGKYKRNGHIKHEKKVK
The experiment can be described thus: Assay 1: CGT Enzymatic Assay (RapidFire/MS/MS, 0.01% Tween 80). Type of experiment: biochemical. As to conditions: Table 1, Compounds of Formula (I) and Formula (II); CGT enzymatic assay, C6-NBD-dihydro-galactosylceramide readout; read-out: IC50.
As usually defined, the IC50 is the concentration needed to halve the response being measured. As to `N#Cc1ccc(N2C(=O)N(c3ccc(Br)cc3)C(O)(c3cccc(C#N)c3)C23CCC3)cc1` (stereo not shown) [Compound 295, 3-(7-(4-bromophenyl)-5-(4-cyanophenyl)-8-hydroxy-6-oxo-5,7-diazaspiro[3.4]octan-8-yl)benzonitrile], the IC50 was below 1000 nM.
Consider `N#Cc1cc(C#N)cc(C2(O)N(c3ccc(Cl)cc3)C(=O)N(c3ccc(Cl)cc3)C23COC3)c1` (stereo not shown) [Compound 306, 5-(5,7-bis(4-chlorophenyl)-8-hydroxy-6-oxo-2-oxa-5,7-diazaspiro[3.4]octan-8-yl)isophthalonitrile], for which the IC50 is below 1000 nM.
Same read-out and setting: the value for `N#Cc1ccc(N2C(=O)N(c3ccccc3)C3(CCC3)C2(O)c2cccc(OC(F)(F)F)c2)cc1` (stereo not shown) [Example 335, 4-(8-hydroxy-6-oxo-5-phenyl-8-(3-(trifluoromethoxy)phenyl)-5,7-diazaspiro[3.4]octan-7-yl)benzonitrile] was below 1000 nM; that for `Cc1ccc(N2C(=O)N(c3ccc(C#N)cc3)C(O)(c3cccc(OC(F)(F)F)c3)C23CCC3)cc1` (stereo not shown) [Compound 281, 4-(8-hydroxy-6-oxo-5-(p-tolyl)-8-(3-(trifluoromethoxy)phenyl)-5,7-diazaspiro[3.4]octan-7-yl)benzonitrile] was below 1000 nM.

Staying with this experiment, now noted: Table 1, Compounds of Formula (I) and Formula (II); CGT enzymatic assay; read-out: IC50.
Take `CCc1cccc(C2(O)CN(c3ccc(Br)cc3)C(=O)N2c2ccc(Br)cc2)c1` (stereo not shown) [Example 47, 1,3-bis(4-bromophenyl)-4-(3-ethylphenyl)-4-hydroxyimidazolidin-2-one]: the IC50 fell in the range of 1000 to 10000 nM.
With `CC(=O)c1cccc(C2(O)C(C)N(c3ccc(Cl)cc3)C(=O)N2c2ccc(Cl)cc2)c1` (stereo not shown) [Compound 124, 4-(3-acetylphenyl)-1,3-bis(4-chlorophenyl)-4-hydroxy-5-methylimidazolidin-2-one], the IC50 was below 1000 nM.
Consider `C[C@@H]1N(c2ccc(Cl)cc2)C(=O)N(c2ccc(Cl)cc2)C1(O)c1cccc(Cl)c1` (single isomer, unassigned) [Compound 62-1], for which the IC50 was below 1000 nM.
Turning to `CCC1(O)CN(c2ccc(Cl)cc2)C(=O)N1c1ccc(Cl)cc1` (stereo not shown) [Example 56, 1,3-bis(4-chlorophenyl)-4-ethyl-4-hydroxyimidazolidin-2-one], the IC50 was above 50000 nM.
Still for that read-out and setting: under `C[C@@H]1N(c2ccc(Br)cc2)C(=O)N(c2ccc(Br)cc2)C1(O)c1cccc(OC(F)(F)F)c1` (stereo partly drawn) [Compound 66-1, (5S)-1,3-bis(4-bromophenyl)-4-hydroxy-5-methyl-4-(3-(trifluoromethoxy)phenyl)imidazolidin-2-one] stands below 1000 nM.
As for `O=C1N(c2ccc(Br)cc2)C(=O)C(O)(c2ccc3ccccc3c2)N1c1ccc(Br)cc1` (stereo not shown) [Compound 148, 1,3-bis(4-bromophenyl)-5-hydroxy-5-(naphthalen-2-yl)imidazolidine-2,4-dione], the IC50 was 50000 to 100000 nM.
In the case of `Cc1ccc(N2C(=O)N(c3ccc(C)cc3)C(O)(c3cccc(OC(F)(F)F)c3)C2C(C)C)cc1` (stereo not shown) [Compound 235, 4-hydroxy-5-isopropyl-1,3-di-p-tolyl-4-(3-(trifluoromethoxy)phenyl)imidazolidin-2-one], the IC50 is below 1000 nM.
As for `C[C@]1(c2cccc(C(F)(F)F)c2)C(O)N(c2ccc(Cl)cc2)C(=O)N1c1ccc(Cl)cc1` (stereo partly drawn) [Example 190-1, (4S)-1,3-bis(4-chlorophenyl)-5-hydroxy-4-methyl-4-(3-(trifluoromethyl)phenyl)imidazolidin-2-one], the IC50 is above 50000 nM.
In the case of `N#Cc1cc(Cl)cc(C2(O)CN(c3ccc(Br)cc3)C(=O)N2c2ccc(Cl)cc2)c1` (stereo not shown) [Compound 110, 3-(1-(4-bromophenyl)-3-(4-chlorophenyl)-4-hydroxy-2-oxoimidazolidin-4-yl)-5-chlorobenzonitrile], the IC50 was below 1000 nM.
In the case of `CCCCCCC1(O)C(=O)N(c2ccc(Br)cc2)C(=O)N1c1ccc(Br)cc1` (stereo not shown) [Example 157, 1,3-bis(4-bromophenyl)-5-hexyl-5-hydroxyimidazolidine-2,4-dione], the IC50 fell in the range of 50000 to 100000 nM.
With `CC1(O)CN(c2ccc(Br)cc2)C(=O)N1c1ccc(Br)cc1` (stereo not shown) [Example 2, 1,3-bis(4-bromophenyl)-4-hydroxy-4-methylimidazolidin-2-one], the IC50 was above 50000 nM.
Same read-out and setting: under `CCCC1(C)N(c2ccc(Cl)cc2)C(=O)N(c2ccc(Cl)cc2)C1(O)c1cccc(OC(F)(F)F)c1` (stereo not shown) [Example 170, 1,3-bis(4-chlorophenyl)-4-hydroxy-5-methyl-5-propyl-4-(3-(trifluoromethoxy)phenyl)imidazolidin-2-one] stands below 1000 nM.
Consider `CC[C@H]1N(c2ccc(F)cc2)C(=O)N(c2ccc(F)cc2)C1(O)c1cccc(C#N)c1` (stereo partly drawn) [Compound 123-2, 3-((5R)-5-ethyl-1,3-bis(4-fluorophenyl)-4-hydroxy-2-oxoimidazolidin-4-yl)benzonitrile], for which the IC50 is below 1000 nM.
As to `O=C1N(c2ccc(Cl)cc2)C2(CCC2)C(O)(c2cccc(OC(F)(F)F)c2)N1c1ccc(Cl)cc1` (stereo not shown) [Compound 242, 5,7-bis(4-chlorophenyl)-8-hydroxy-8-(3-(trifluoromethoxy)phenyl)-5,7-diazaspiro[3.4]octan-6-one], the IC50 was below 1000 nM.
On to `Cc1csc(C2(O)C(C)N(c3ccc(Br)cc3)C(=O)N2c2ccc(Br)cc2)c1` (stereo not shown) [Compound 97, 1,3-bis(4-bromophenyl)-4-hydroxy-5-methyl-4-(4-methylthiophen-2-yl)imidazolidin-2-one], for which the IC50 lay within 1000 to 10000 nM.
Same read-out and setting: the value for `N#Cc1cccc(C2(O)N(c3ccc(Cl)cc3)C(=O)N(c3ccc(Cl)cc3)C23CC3)c1` (stereo not shown) [Example 226, 3-(4,6-bis(4-chlorophenyl)-7-hydroxy-5-oxo-4,6-diazaspiro[2.4]heptan-7-yl)benzonitrile] was below 1000 nM.
On to `O=C1N(c2ccc(Cl)cc2)C(c2ccccc2)C(O)(CO)N1c1ccc(Cl)cc1` (stereo not shown) [Example 218, 1,3-bis(4-chlorophenyl)-4-hydroxy-4-(hydroxymethyl)-5-phenylimidazolidin-2-one], for which the IC50 lay in the range of 10000 to 50000 nM.
Consider `C[C@]1(C(F)(F)F)N(c2ccc(Cl)cc2)C(=O)N(c2ccc(Cl)cc2)C1(O)c1cccc(OC(F)(F)F)c1` (single isomer, unassigned) [Example 159-1], for which the IC50 lay within 1000 to 10000 nM.
Turning to `CN(C)c1cccc(C2(O)CN(c3ccc(Br)cc3)C(=O)N2c2ccc(Br)cc2)c1` (stereo not shown) [Compound 125, 1,3-bis(4-bromophenyl)-4-(3-(dimethylamino)phenyl)-4-hydroxyimidazolidin-2-one], the IC50 was above 50000 nM.
The same measure, in the same setting: under `C[C@H]1N(c2ccc(Cl)cc2)C(=O)N(c2ccc(Cl)cc2)C1(O)c1cccc(C(F)(F)F)c1` (stereo partly drawn) [Compound 77-2, (5R)-1,3-bis(4-chlorophenyl)-4-hydroxy-5-methyl-4-(3-(trifluoromethyl)phenyl)imidazolidin-2-one] stands below 1000 nM; under `CC[C@@H]1N(c2ccc(Br)cc2)C(=O)N(c2ccc(Br)cc2)C1(O)c1cccc(C(F)(F)F)c1` (stereo partly drawn) [Compound 67-1, (5S)-1,3-bis(4-bromophenyl)-5-ethyl-4-hydroxy-4-(3-(trifluoromethyl)phenyl)imidazolidin-2-one], below 1000 nM.
Consider `O=C1N(c2ccc(Cl)cc2)C2(CCCC2)C(O)(c2cccc(OC(F)(F)F)c2)N1c1ccc(Cl)cc1` (stereo not shown) [Compound 146, 1,3-bis(4-chlorophenyl)-4-hydroxy-4-(3-(trifluoromethoxy)phenyl)-1,3-diazaspiro[4.4]nonan-2-one], for which the IC50 was below 1000 nM.
Still for that read-out and setting: the value for `CC(C)c1c(-c2cccc(OC(F)(F)F)c2)n(-c2ccc(Cl)cc2)c(=O)n1-c1ccc(Cl)cc1` [Example 50] was below 1000 nM; that for `CC[C@H]1N(c2ccc(Cl)cc2)C(=O)N(c2ccc(Cl)cc2)C1(O)c1cccc(OC(F)F)c1` (stereo partly drawn) [Compound 118-2, (5R)-1,3-bis(4-chlorophenyl)-4-(3-(difluoromethoxy)phenyl)-5-ethyl-4-hydroxyimidazolidin-2-one] was below 1000 nM; that for `C[C@]1(c2ccccc2)N(c2ccc(Cl)cc2)C(=O)N(c2ccc(Cl)cc2)[C@@]1(O)c1ccccc1` [Compound 121-4, (4R,5R)-1,3-bis(4-chlorophenyl)-4-hydroxy-5-methyl-4,5-diphenylimidazolidin-2-one] was 1000 to 10000 nM.
In the case of `O=C1N(c2ccccc2)CC(O)(c2ccccc2)N1c1ccccc1` (stereo not shown) [Example 21, 4-hydroxy-1,3,4-triphenylimidazolidin-2-one], the half-inhibitory concentration (IC50) was above 50000 nM.
Take `O=C1N(c2ccc(Br)cc2)C(=O)C(O)(c2ccc(F)cc2)N1c1ccc(Br)cc1` (stereo not shown) [Example 172, 1,3-bis(4-bromophenyl)-5-(4-fluorophenyl)-5-hydroxyimidazolidine-2,4-dione]: the IC50 is 10000 to 50000 nM.
On to `CC[C@@H]1N(c2ccc(F)cc2)C(=O)N(c2ccc(F)cc2)C1(O)c1cccc(C#N)c1` (stereo partly drawn) [Compound 123-1, 3-((5S)-5-ethyl-1,3-bis(4-fluorophenyl)-4-hydroxy-2-oxoimidazolidin-4-yl)benzonitrile], for which the IC50 was in the range of 1000 to 10000 nM.
Take `CC1N(c2ccccc2)C(=O)N(c2ccccc2)C1(O)c1cccc(OC(F)(F)F)c1` (stereo not shown) [Example 230, 4-hydroxy-5-methyl-1,3-diphenyl-4-(3-(trifluoromethoxy)phenyl)imidazolidin-2-one]: the half-maximal inhibitory concentration (IC50) lay in the range of 1000 to 10000 nM.
`O=C1N(c2ccc(Cl)cc2)C(=O)C(O)(c2ccc(Cl)cc2)N1c1ccc(Cl)cc1` (stereo not shown) [Compound 154, 1,3,5-tris(4-chlorophenyl)-5-hydroxyimidazolidine-2,4-dione]: the concentration for half-maximal inhibition (IC50) was 50000 to 100000 nM.
